Several values for one entry are separate records, joined by “and”; a condition that tells them apart may be missing. Identical values can stand only once. Like-named read-outs stand apart in the source and are kept apart here. Starred links: 1 amine or outer side, 2 acyl side, 3 side chain; linkers in the order of their positions; H or OH if unused. Non-standard residues stand in square brackets, D forms with d. Residues, ends and D or L forms follow the SMILES beside them. X1 = N=C(N)NCCC[C@H](N[*:1])C(=O)c1nc2ccc(C(=O)[*:2])cc2s1 Some results are limits rather than exact numbers.

One may read the IC50 as the concentration that gives 50% inhibition. The Ki is the equilibrium dissociation constant of an inhibitor or competing ligand from its target.

Common to all, as to assay type: biochemical
The target of one test is T1, hepsin (Homo sapiens, UniProt P05981).
T1 construct: purchased R&D Systems 4776-SE-010
T1 sequence (P05981 163-417 limits assumed): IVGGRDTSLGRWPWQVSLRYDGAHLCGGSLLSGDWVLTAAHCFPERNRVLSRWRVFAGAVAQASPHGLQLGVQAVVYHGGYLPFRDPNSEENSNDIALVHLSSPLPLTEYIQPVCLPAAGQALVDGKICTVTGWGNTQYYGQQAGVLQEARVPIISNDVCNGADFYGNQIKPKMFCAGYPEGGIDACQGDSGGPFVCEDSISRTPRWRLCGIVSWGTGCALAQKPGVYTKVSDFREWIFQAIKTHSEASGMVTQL
T1 sequence (P05981 45-162 partner limits assumed): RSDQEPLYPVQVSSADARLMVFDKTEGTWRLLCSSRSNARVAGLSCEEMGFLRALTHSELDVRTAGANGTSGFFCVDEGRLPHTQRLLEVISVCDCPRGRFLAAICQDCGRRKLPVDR
Put plainly: Fluorescent kinetic enzyme inhibitor assay of hepsin. Conditions: for IC50: Table 4.1; for Ki: Table 4.2, Boc-QAR-AMC substrate, read-out: Hepsin Ki. On the procedure:
(§1) Inhibitors (11-pt serial dilutions, 0-20 μM final concentration in reaction) were serially diluted in DMSO (2% DMSO final concentration) and then mixed with either recombinant serine protease domain of HGFA [Z. Han, P. K. Harris, D. E. Jones, R. Chugani, T. Kim, M. Agarwal, W. Shen, S. A. Wildman, J. W. Janetka, Acs Med Chem Lett 2014, 5, 1219-1224], matriptase (Charles Craik, UCSF) or hepsin* (#4776-SE-010, R&D Systems, Minneapolis, Minn.) in black 384 well plates (Corning #3575. Corning, N.Y.). […] The final substrate concentrations for all assays were at the Km for the respective enzymes. Changes in fluorescence (excitation at 380 nm and emission at 460 nm) were measured at room temperature over time in a Biotek Synergy 2 plate reader (Winnoski, Vt.). Using GraphPad Prism version 6.04 software program, (GraphPad Software, San Diego, Calif., www.graphpad.com), a four parameter curve fit was used to determine the inhibitor IC50s from a plot of the mean reaction velocity versus the inhibitor concentration. The IC50 values represent the average of three separate experimental determinations.

The target of test [1] is T2, HGFA (Homo sapiens, UniProt Q04756).
T2 construct: His6 tag (N); seven amino acid spacer and seven amino acid TEV cleavage site (N); Honey Bee melittin signal peptide (N); made in house; host or cells: High 5 insect cells (baculovirus; virus raised in Sf9)
T2 sequence (Q04756 373-655): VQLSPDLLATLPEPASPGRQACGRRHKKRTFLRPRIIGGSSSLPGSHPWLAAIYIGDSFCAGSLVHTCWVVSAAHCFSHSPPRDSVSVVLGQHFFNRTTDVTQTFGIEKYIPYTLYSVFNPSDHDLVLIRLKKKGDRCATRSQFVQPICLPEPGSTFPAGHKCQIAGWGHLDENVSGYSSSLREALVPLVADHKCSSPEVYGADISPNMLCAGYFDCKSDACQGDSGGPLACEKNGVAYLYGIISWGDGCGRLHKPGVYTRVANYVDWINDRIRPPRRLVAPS
Kind of test: Fluorescent kinetic enzyme inhibitor assay of HGFA. Particulars: for Ki: read-out: HGFA Ki. In a few lines:
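Recombinant His-tagged HGFA residues 373-655 from insect cells, with substrate at Km. Inhibitors in 11-point dilutions, 0-20 μM final, 2% DMSO, fluorescence (ex 380/em 460 nm) followed over time at room temperature. IC50 from four-parameter fit of mean velocity, average of three experiments.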

Test [2] has as its target T2, HGFA. Kind of test: Chromogenic kinetic enzyme inhibitor assay of HGFA. Conditions: Table 4.1; chromogenic substrate Pefachrome FVIIa. The text has this:
This PCR product was cloned into the SfoI-HindIII sites of a modified pFastBac HT baculovirus expression vector (Addgene, Cambridge, Mass.). This vector contains a six amino His tag followed by a seven amino spacer and a seven amino acid TEV cleavage site placed immediately downstream of the Honey Bee melittin signal peptide. Using a modified Bac to Bac Expression System (Life Technologies, Carlsbad, Calif.), recombinant HGFA bacmids were obtained by transforming DH10Bac Escherichia coli cells. To obtain HGFA containing baculovirus, purified bacmids were transfected into Sf9 insect cells. After 5 days in culture at 27° C., media was harvested from transfected Sf9 cells. This media was used to prepare baculovirus infected insect cells (BIICs). These BIIICs were used to infect High 5 insect cells. Four days post infection, media was harvested and recombinant protein prepared as follows. Media was chilled to 4° C. and spun at 4000×g for 20 minutes (all subsequent steps were performed at 4° C. unless noted). […] Concentrated media was then buffer exchanged in two steps, five volumes of 50 mM Na-phosphate, 500 mM NaCl, pH 6.2, followed by five volumes of 50 mM Na-phosphate, 500 mM NaCl, pH 7.5. […] After mixing this slurry for 12 hours, nickel agarose beads were allowed to settle by gravity and then loaded into a column. Beads were washed with buffer (25 mM Na-phosphate, 500 mM NaCl, 25 mM imidazole, pH 8) and the bound protein eluted using (25 mM Na-phosphate, 500 mM NaCl, 250 mM imidazole, pH 8). Using a Amicon Ultra-4 Centrifugal filters (#UFC801008, Merck Millipore, Ltd., Tullagreen, Ireland), peak protein fractions were concentrated and run over a Superdex-200 10/300 GL column (GE Healthcare Life Sciences, Piscataway, N.J.) in 10 mM Tris, 200 mM NaCl, 0.2 mM EDTA, pH 8. HGFA containing fractions were pooled, concentrated, made 50% glycerol, and stored at minus 20° C. Protein was quantitated using a modified Lowry protein assay (#500-0006, Bio-Rad Laboratories, Hercules, Calif.).
Using Gen 5 2.00 software program (Biotek, Winnoski, Vt.), a four parameter curve fit was used to determine the inhibitor IC50s from a plot of the mean reaction velocity versus the inhibitor concentration. The IC50 values represent the average of three separate experimental determinations.

A further test addresses T3, matriptase (Homo sapiens, UniProt Q9Y5Y6).
T3 construct: Charles Craik, UCSF (obtained from another laboratory)
T3 sequence (Q9Y5Y6 615-855 limits assumed): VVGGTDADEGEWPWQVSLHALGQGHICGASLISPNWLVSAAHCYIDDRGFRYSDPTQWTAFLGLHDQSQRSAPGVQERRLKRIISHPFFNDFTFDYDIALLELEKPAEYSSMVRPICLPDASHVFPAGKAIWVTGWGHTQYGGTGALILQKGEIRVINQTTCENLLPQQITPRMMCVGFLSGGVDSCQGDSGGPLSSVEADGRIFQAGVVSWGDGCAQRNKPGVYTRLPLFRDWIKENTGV
Put plainly: Fluorescent kinetic enzyme inhibitor assay of matriptase. Conditions: for IC50: Table 4.1. On the procedure:
as §1

The next test deals with thrombin (Homo sapiens, UniProt P00734). Kind of test: Chromogenic kinetic enzyme assay of thrombin. Conditions: Table 6.2; headed Fluorogenic Assay; read-out: Thrombin Ki. As for the experimental part:
(§2) Inhibitors (11-pt serial dilutions, 0-20 μM final concentration) were serially diluted in DMSO (2% DMSO final concentration) and then mixed with recombinant thrombin (0.15 nM final concentration) or Factor Xa (0.35 nM final concentration) in TNC buffer (25 mM Tris, 150 mM NaCl, 5 mM CaCl2, 0.01% TRITON X-100, pH 8) using clear 384 well plates. […] Changes in absorbance at 405 nm were measured over time in a Biotek Synergy 2 plate (Winnoski, Vt.). Using GraphPad Prism version 6.04 software program, (GraphPad Software, San Diego, Calif., www.graphpad.com), a four parameter curve fit was used to determine the inhibitor IC50s from a plot of the mean reaction velocity versus the inhibitor concentration. Ki values were calculated from the IC50 values using the Cheng and Prusoff equation (Ki=IC50/(1+[S]/Km).

For a further test, the target named is Factor Xa (Homo sapiens, UniProt P00742). Put plainly: Chromogenic kinetic enzyme assay of Factor Xa. Particulars: Table 6.2; headed Fluorogenic Assay; read-out: Factor Xa Ki. As for the experimental part: as §2
Sequence of Factor Xa (P00742 235-488 limits assumed): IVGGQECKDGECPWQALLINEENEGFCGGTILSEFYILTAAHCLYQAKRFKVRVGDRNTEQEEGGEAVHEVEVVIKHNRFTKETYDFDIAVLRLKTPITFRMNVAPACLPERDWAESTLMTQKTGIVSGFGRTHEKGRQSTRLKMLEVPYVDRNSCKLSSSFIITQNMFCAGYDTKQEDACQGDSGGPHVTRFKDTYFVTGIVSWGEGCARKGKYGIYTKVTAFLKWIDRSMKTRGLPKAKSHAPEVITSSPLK
Sequence of Factor Xa (P00742 41-179 partner limits assumed): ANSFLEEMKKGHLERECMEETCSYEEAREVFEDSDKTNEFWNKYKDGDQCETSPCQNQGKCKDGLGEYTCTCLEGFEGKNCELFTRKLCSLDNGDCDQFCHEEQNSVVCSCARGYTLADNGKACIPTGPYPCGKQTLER
[3] abbreviates: Table 4.2, Boc-QLR-AMC substrate.

On to `CC(=O)N[C@@H](Cc1c[nH]c2ccccc12)C(=O)N[C@@H](CCC(N)=O)C(=O)N[C@@H](CC(C)C)C(=O)N[C@@H](CCCNC(=N)N)C(=O)c1nccs1` [Compound 5b, Ac-WQLR(SEQ ID NO: 3)-kt], for which the IC50 at hepsin was 1 nM; against HGFA [2], 471 nM; on matriptase, 49 nM. Also, the Ki at hepsin is 0.21 nM; on HGFA [1] (setting [3]), 65 nM.
Regarding `CC(=O)N[C@@H](CCCCN)C(=O)N[C@@H](Cc1ccccc1)C(=O)N[C@@H](CC(C)C)C(=O)N[C@@H](CCCNC(=N)N)C(=O)c1nccs1` [Compound 5d, Ac-KFLR(SEQ ID NO: 5)-kt], the IC50 was 22 nM at hepsin, 330 nM against HGFA [2] and 35 nM on matriptase. For the same compound, the inhibitory constant (Ki) on hepsin amounted to 2.1 nM; on HGFA [1] (setting [3]), 80 nM; at matriptase (Table 4.2, Boc-QAR-AMC substrate), 15 nM. In addition, at HGFA [1], the “selectivity among HGFA, matriptase and hepsin” value is “HGFA selectivity over both hepsin and matriptase”.
In the case of `CC(=O)N[C@@H](CO)C(=O)N[C@@H](Cc1c[nH]cn1)C(=O)N[C@@H](CC(C)C)C(=O)N[C@@H](CCCNC(=N)N)C(=O)c1nccs1` [Compound 6a, Ac-SHLR(SEQ ID NO: 11)-kt], the IC50 amounted to 5 nM on hepsin, 1800 nM at HGFA [2] and 560 nM at matriptase. On HGFA [1] (setting [3]), the Ki is 332 nM.
Consider `CC(=O)N[C@@H](Cc1c[nH]c2ccccc12)C(=O)N[C@@H](CCCCN)C(=O)N[C@@H](CC(C)C)C(=O)N[C@@H](CCCNC(=N)N)C(=O)c1nccs1` [Compound 6b, Ac-WKLR(SEQ ID NO: 12)-kt], for which the values for the 50% inhibitory concentration (IC50) at hepsin, against HGFA [2] and at matriptase were 4 nM, 320 nM and 97 nM, respectively. Moreover, the inhibition constant Ki at HGFA [1] (setting [3]) turned out to be 56 nM.
Regarding `CC(=O)N[C@@H](CC(N)=O)C(=O)N[C@@H](CCCCN)C(=O)N[C@@H](CC(C)C)C(=O)N[C@@H](CCCNC(=N)N)C(=O)c1nccs1` [Compound 6d, Ac-NKLR(SEQ ID NO: 14)-kt], the Ki at hepsin was determined as 1.41 nM; on HGFA [1] (setting [3]) it was 79 nM. The IC50 against HGFA [2] was 397 nM and 400 nM.
Take `CC(=O)N[C@@H](Cc1c[nH]c2ccccc12)C(=O)N[C@@H](CC(C)C)C(=O)N[C@@H](Cc1ccccc1)C(=O)N[C@@H](CCCNC(=N)N)C(=O)c1nc2ccccc2s1` [Compound 7064, Ac-WLFR(SEQ ID NO: 20)-Kbt]: the inhibition constant Ki at HGFA [1] (Table 6.1, Fluorogenic Assay) is 133 nM; on thrombin, more than 20000 nM; on Factor Xa, 1 nM.
Taken in the same sequence, the figures for `CC(=O)N[C@@H](CO)C(=O)N[C@@H](CCCCN)C(=O)N[C@@H](CC(C)C)C(=O)N[C@@H](CCCNC(=N)N)C(=O)c1nc2ccc(C(=O)O)cc2s1` [Compound 7118, Ac-SKLR(SEQ ID NO: 10)-Kbt-COOH] were 132 nM, more than 2000 nM and 1250 nM.
The like results for `CC(=O)N[C@@H](CO)C(=O)N[C@@H](CCCCN)C(=O)N[C@@H](CC(C)C)C(=O)N[C@@H](CCCNC(=N)N)C(=O)c1nc2ccc(C(=O)N[C@@H](Cc3c[nH]c4ccccc34)C(N)=O)cc2s1` [Compound 7124, Ac-SKLR(SEQ ID NO: 10)-Kbt-Trp— NH2] (Ac-SKL[X1]W-NH2) were, in that order, 15.8 nM, 1230 nM and 163 nM.
For the compound `CC(=O)N[C@@H](CO)C(=O)N[C@@H](CCCCN)C(=O)N[C@@H](CC(C)C)C(=O)N[C@@H](CCCNC(=N)N)C(=O)c1nc2ccc(C(=O)NCc3ccccc3)cc2s1` [Compound 7139, Ac-SKLR(SEQ ID NO: 10)-Kbt- benzylamide], the Ki on HGFA [1] (Table 6.1, Fluorogenic Assay) was found to be 9.1 nM; on thrombin, 2470 nM; on Factor Xa it was 190 nM.
Take `CC(=O)N[C@@H](CO)C(=O)N[C@@H](CCCCN)C(=O)N[C@@H](CC(C)C)C(=O)N[C@@H](CCCNC(=N)N)C(=O)c1nc2ccc(C(=O)NC3CCNCC3)cc2s1` [Compound 7140, Ac-SKLR(SEQ ID NO: 10)-Kbt-4-piperidinylamide]: the Ki on HGFA [1] (Table 6.1, Fluorogenic Assay) was 7.7 nM; at thrombin, 2950 nM; on Factor Xa it was 447 nM.
Consider `CC(=O)N[C@@H](CCCCN)C(=O)N[C@@H](CCCNC(=N)N)C(=O)N[C@@H](CC(C)C)C(=O)N[C@@H](CCCNC(=N)N)C(=O)c1nc2ccc(C(=O)NCc3cccc(C(=O)O)c3)cc2s1` [Compound 7165, Ac-KRLR(SEQ ID NO: 8)-Kbt-5-COOH], for which the Ki on HGFA [1] (Table 6.1, Fluorogenic Assay) stood at 6.07 nM; at thrombin, 1940 nM; on Factor Xa it was 20.2 nM.
As for `CC(C)C[C@H](NC(=O)[C@@H](N)Cc1c[nH]c2ccccc12)C(=O)N[C@@H](CCCNC(=N)N)C(=O)c1nc2ccccc2s1` [Compound 7170, H-WLR-kbt], the Ki was determined as 104 nM at HGFA [1] (Table 6.1, Fluorogenic Assay); 457 nM at thrombin; 532 nM on Factor Xa.
Regarding `CC(C)C[C@H](NC(=O)[C@@H](N)CCCNC(=N)N)C(=O)N[C@@H](CCCNC(=N)N)C(=O)c1nc2ccccc2s1` [Compound 7171, H-RLR-kbt], the Ki at HGFA [1] (Table 6.1, Fluorogenic Assay) came to 83.1 nM; on thrombin, 8200 nM; on Factor Xa it was 56 nM.
For the compound `CC(=O)N[C@@H](CC(C)C)C(=O)N[C@@H](CC(C)C)C(=O)N[C@H](C=O)CCCNC(=N)N` [Leupeptin, reference compound], at hepsin, the “fold more potent for hepsin versus HGFA” value worked out at 3 fold. In addition, the IC50 on hepsin is 256 nM; against HGFA [2] it was 535 nM; on matriptase, 1150 nM. The “fold selective for HGFA over matriptase” value at HGFA [1] came to 3 fold. The Ki on HGFA [1] (setting [3]) came out at 188 nM.

The values are drawn from patent US11130780B2, “Inhibitors of growth factor activation enzymes” (Washington University, priority 2015, dated 2021).
